# Reference: patent US8461150B2, “Chalcone linked pyrrolo[2,1-c][1, 4]benzodiazepine hybrids as potential anticancer agents and process for the preparation thereof” (Council of Scientific & Industrial Research, priority 2008, dated 2013)
# How the values were obtained:
# [1] = tested on: duplex-form calf thymus DNA (CT-DNA); assay: Thermal denaturation studies with calf thymus DNA; assay type: binding; settings: [PBD]:[DNA] molar ratio 1:5, CT-DNA 100 μM, ligand 20 μM, pH 7.00; for ΔTμ (° C.) after incubation at 37 °C. for 0 h: 0 h incubation; for ΔTμ (° C.) after incubation at 37 °C. for 18 h: 18 h incubation
# Protocol: These compounds have also been subjected to thermal denaturation studies with duplex-form calf thymus DNA (CT-DNA) using an modification of a reported procedure. Working solutions in aqueous buffer (10 mM NaH2PO4/Na2HPO4, 1 mM Na2EDTA, pH 7.00+0.01) containing CT-DNA (100 μm in phosphate) and the PBD (20 μm) have been prepared by addition of concentrated PBD solutions in DMSO to obtain a fixed [PBD]/[DNA] molar ratio of 1:5. The DNA-PBD solutions have been incubated at 37° C. for 0 and 18 h prior to analysis. Samples have been monitored at 260 nm using a Beckman DU-800 spectrophotometer fitted with high performance temperature controller, and heated at 1° C. min^−1 in the 40-110° C. range. DNA helix→coil transition temperatures (Tm) have been obtained from the maxima in the d(A260)/d T derivative plots. Drug-induced alterations in DNA melting behavior are given by: ΔTm=Tm(DNA+PBD)−Tm(DNA alone), where the Tm value for the PBD-free CT-DNA is 68.5±0.01.
# human tumour cell lines = assay: In vitro cytotoxicity, mean graph midpoints (MG_MID) over human tumour cell lines; assay type: cell-based; settings: human tumour cell lines, 48 h exposure, SRB
# Protocol: (§1) Biological Activity: The in vitro cell line studies were carried out at the National Cancer Institute, Maryland, USA.
# (§2) 6b, 6c, 6g, 10a and 10b were evaluated for in vitro anticancer activity against sixty human tumour cells derived from nine cancer types (leukemia, non-small-cell lung, colon, CNS, melanoma, ovarian, prostate, renal and breast cancer) as shown in (Table 1 and 2). For the compound, dose response curves for each cell line were measured at a minimum of five concentrations at 10 fold dilutions. A protocol of 48 h continuous drug exposure was used and a sulforhodamine B (SRB) protein assay was used to estimate cell viability or growth. The concentration causing 50% cell growth inhibition (GI50), total cell growth inhibition (TGI 0% growth) and 50% cell death (LC50, −50% growth) compared with the control was calculated.
# UO-31 (Renal) = assay: Cytotoxicity in selected cancer cell lines (SRB, 48 h); assay type: cell-based, human
# Protocol: as §1, §2
# (§3) Each cancer type represents the average of six to nine different cancer cell lines. In vitro evaluation of cytotoxic activity. The compound 6b, 6c, 6g 10a and 10b were evaluated for in vitro anticancer activity against nine human tumour cells derived from six cancer types (leukemia, colon, prostate, melanoma, ovarian, lung, cervix and breast cancer) as shown in Table 3. […] Compounds 6b, 6c, 6g, 10a and 10b have been evaluated for their in vitro cytotoxicity in selected human cancer cell lines of colon (Colo205), lung (NCI-H522, NCI-H226), colon (colo-205), prostate (DU145, PC3), ovarian (IGROV1, HT1080), and breast (MDA-MB-435, Zr-75-1), melanoma (LOXMIVI, VACC-62, SK-MEL-5) origin. A protocol of 48 h continuous drug exposure has been used and an […] has been used to estimate cell viability or growth. The results are expressed as percent of cell growth determined relative to that of untreated control cells
# A498 (Renal) = assay: as above; assay type: cell-based, human
# Protocol: as §1, §2, §3
# HCT-116 (Colon) = assay: as above; assay type: cell-based, human
# Protocol: as §1, §2, §3
# OVCAR-3 (Ovarian) = assay: as above; assay type: cell-based, human
# Protocol: as §1, §2, §3
# 786-0 (Renal) = assay: as above; assay type: cell-based, human
# Protocol: as §1, §2, §3
# CAKI-1 (Renal) = assay: as above; assay type: cell-based, human
# Protocol: as §1, §2, §3
# [2] = tested on: NCI-H522 (Non-small cell lung); assay: as above; assay type: cell-based, human
# Protocol: as §1, §2, §3
# RPMI-8226 (Leukemia) = assay: as above; assay type: cell-based, human
# Protocol: as §1, §2, §3
# HCT-15 (Colon) = assay: as above; assay type: cell-based, human
# Protocol: as §1, §2, §3
# MALME-3M (Melanoma) = assay: as above; assay type: cell-based, human
# Protocol: as §1, §2, §3
# M14 (Melanoma) = assay: as above; assay type: cell-based, human
# Protocol: as §1, §2, §3
# SK-MEL-5 (Melanoma) = assay: as above; assay type: cell-based, human
# Protocol: as §1, §2, §3
# CCRF-CEM (Leukemia) = assay: as above; assay type: cell-based, human
# Protocol: as §1, §2, §3
# NCI/ADR-RES (Breast) = assay: as above; assay type: cell-based, human
# Protocol: as §1, §2, §3
# TK-10 (Renal) = assay: as above; assay type: cell-based, human
# Protocol: as §1, §2, §3
# UACC-62 (Melanoma) = assay: as above; assay type: cell-based, human
# Protocol: as §1, §2, §3
# [3] = tested on: NCI-H23 (Non-small cell lung); assay: as above; assay type: cell-based, human
# Protocol: as §1, §2, §3
# UACC-257 (Melanoma) = assay: as above; assay type: cell-based, human
# Protocol: as §1, §2, §3
# SF-539 (CNS) = assay: as above; assay type: cell-based, human
# Protocol: as §1, §2, §3
# SW-620 (Colon) = assay: as above; assay type: cell-based, human
# Protocol: as §1, §2, §3
# ACHN (Renal) = assay: as above; assay type: cell-based, human
# Protocol: as §1, §2, §3
# U251 (CNS) = assay: as above; assay type: cell-based, human
# Protocol: as §1, §2, §3
# MDA-MB-231/ATCC (Breast) = assay: as above; assay type: cell-based, human
# Protocol: as §1, §2, §3
# HL-60(TB) (Leukemia) = assay: as above; assay type: cell-based, human
# Protocol: as §1, §2, §3
# LOX IMVI (Melanoma) = assay: as above; assay type: cell-based, human
# Protocol: as §1, §2, §3
# [4] = tested on: NCI-H226 (Non-small cell lung); assay: as above; assay type: cell-based, human
# Protocol: as §1, §2, §3
# [5] = tested on: Non-small cell lung cancer cell lines; assay: NCI in vitro anticancer screen, SRB assay, 48 h, panel average; assay type: cell-based, human; settings: average of six to eight cell lines, 48 h exposure
# Protocol: as §1
# (§4) Cytotoxicity: • The compounds 6b) 7-Methoxy-8-{4-[1-(4-fluorophenyl)-3-(4-hydroxy-3-methoxyphenyl)-2-propen-1-one]butyl}-oxy-(11aS)-1,2,3,11a-5H-pyrrolo[2,1-c][1,4]benzodiazepin-5-one; • (6c) 7-Methoxy-8-{5-[1-(4-fluorophenyl)-3-(4-hydroxy-3-methoxyphenyl)-2-propen-1-one]pentyl}-oxy-(11aS)-1,2,3,11a-5H-pyrrolo[2,1-c][1,4]benzodiazepin-5-one; • (6g) 7-Methoxy-8-{3-[1-(2-hydroxyphenyl)-3-(4-hydroxy-3-methoxyphenyl)-2-propen-1-one]propyl}-oxy-(11aS)-1,2,3,11a-5H-pyrrolo[2,1-c][1,4]benzodiazepin-5-one; • (10a) 7-Methoxy-8-{3-[3-(4-hydroxy-3-methoxyphenyl)-1-(2,4-dimethyl-3-quinolyl)-2-propen-1-one]propyl}-oxy-(11aS)-1,2,3,11a-5H-pyrrolo[2,1-c][1,4]benzodiazepin-5-one • (10b) 7-Methoxy-8-{4-[3-(4-hydroxy-3-methoxyphenyl)-1-(2,4-dimethyl-3-quinolyl)-2-propen-1-one]butyl}-oxy-(11aS)-1,2,3,11a-5H-pyrrolo[2,1-c][1,4]benzodiazepin-5-one; were evaluated for in vitro anticancer activity against […] derived from […] (leukemia, ovarian, renal, melanoma, CNS, colon, prostate, lung, cervix and breast cancer) as shown in (Table 1, 2 and 3)
# as §2
# (§5) Each cancer type represents the average of six to eight different cancer cell lines.
# [6] = tested on: Leukemia cancer cell lines; assay: as above; assay type: cell-based, human; settings: average of six to eight cell lines, 48 h exposure
# Protocol: as §1, §4, §2, §5
# CNS cancer cell lines = assay: as above; assay type: cell-based, human; settings: average of six to eight cell lines, 48 h exposure
# Protocol: as §1, §4, §2, §5
# [7] = tested on: Prostate cancer cell lines; assay: as above; assay type: cell-based, human; settings: average of six to eight cell lines, 48 h exposure
# Protocol: as §1, §4, §2, §5
# [8] = tested on: Melanoma cancer cell lines; assay: as above; assay type: cell-based, human; settings: average of six to eight cell lines, 48 h exposure
# Protocol: as §1, §4, §2, §5
# Colon cancer cell lines = assay: as above; assay type: cell-based, human; settings: average of six to eight cell lines, 48 h exposure
# Protocol: as §1, §4, §2, §5
# Breast cancer cell lines = assay: as above; assay type: cell-based, human; settings: average of six to eight cell lines, 48 h exposure
# Protocol: as §1, §4, §2, §5
# [9] = tested on: Ovarian cancer cell lines; assay: as above; assay type: cell-based, human; settings: average of six to eight cell lines, 48 h exposure
# Protocol: as §1, §4, §2, §5
# Renal cancer cell lines = assay: as above; assay type: cell-based, human; settings: average of six to eight cell lines, 48 h exposure
# Protocol: as §1, §4, §2, §5
compound,measurement,setting,value
"COc1cc(C=CC(=O)c2ccc(F)cc2)ccc1OCCCOc1cc2c(cc1OC)C(=O)N1CCC[C@H]1C=N2 [6a, 7-Methoxy-8-{3-[1-(4-fluorophenyl)-3-(4-hydroxy-3-methoxyphenyl)-2-propen-1-one]propyl}-oxy-(11aS)-1,2,3,11a-5H-pyrrolo[2,1-c][1,4]benzodiazepin-5-one]",ΔTμ (° C.) after incubation at 37 °C. for 0 h,[1],1.7 °C
same,ΔTμ (° C.) after incubation at 37 °C. for 18 h,[1],2.4 °C
"COc1cc(C=CC(=O)c2ccccc2O)ccc1OCCCOc1cc2c(cc1OC)C(=O)N1CCC[C@H]1C=N2 [6d, 7-Methoxy-8-{3-[1-(2-hydroxyphenyl)-3-(4-hydroxy-3-methoxyphenyl)-2-propen-1-one]propyl}-oxy-(11aS)-1,2,3,11a-5H-pyrrolo[2,1-c][1,4]benzodiazepin-5-one]",ΔTμ (° C.) after incubation at 37 °C. for 0 h,[1],2.1 °C
same,ΔTμ (° C.) after incubation at 37 °C. for 18 h,[1],2.6 °C
"COc1cc(/C=C/C(=O)c2ccc(O)cc2)ccc1OCCCOc1cc2c(cc1OC)C(=O)N1CCC[C@H]1C=N2 [6g, 7-Methoxy-8-{3-[1-(4-hydroxyphenyl)-3-(4-hydroxy-3-methoxyphenyl)-2-propen-1-one]propyl}-oxy-(11aS)-1,2,3,11a-5H-pyrrolo[2,1-c][1,4]benzodiazepin-5-one]",Log10LC50 mean graph midpoint (MG_MID),human tumour cell lines; 50% cell death,−4.58
same,Log10GI50 mean graph midpoint (MG_MID),human tumour cell lines,−5.78
same,Log10TGI mean graph midpoint (MG_MID),human tumour cell lines; total cell growth inhibition,−5.86
same,GI50,UO-31 (Renal),45.2 µM
same,GI50,A498 (Renal),29 µM
same,GI50,HCT-116 (Colon),14.6 µM
same,GI50,OVCAR-3 (Ovarian),46.3 µM
same,GI50,786-0 (Renal),24.9 µM
same,GI50,CAKI-1 (Renal),22.9 µM
same,GI50,[2],18.3 µM
same,GI50,RPMI-8226 (Leukemia),46.8 µM
same,GI50,HCT-15 (Colon),18.4 µM
same,GI50,MALME-3M (Melanoma),36.2 µM
same,GI50,M14 (Melanoma),18.8 µM
same,GI50,SK-MEL-5 (Melanoma),23.3 µM
same,GI50,CCRF-CEM (Leukemia),37.4 µM
same,GI50,NCI/ADR-RES (Breast),28.7 µM
same,GI50,TK-10 (Renal),31.4 µM
same,GI50,UACC-62 (Melanoma),22.5 µM
same,GI50,[3],22.5 µM
same,GI50,UACC-257 (Melanoma),15.9 µM
same,GI50,SF-539 (CNS),33.7 µM
same,GI50,SW-620 (Colon),26.9 µM
same,GI50,ACHN (Renal),46.1 µM
same,GI50,U251 (CNS),19.8 µM
same,GI50,MDA-MB-231/ATCC (Breast),14.2 µM
same,GI50,HL-60(TB) (Leukemia),49.5 µM
same,GI50,LOX IMVI (Melanoma),15 µM
same,GI50,[4],28.4 µM
same,Log GI50 (concentration in mol/L causing 50% growth inhibition),[5],−5.82 mol/L
same,Log GI50 (concentration in mol/L causing 50% growth inhibition),[6],−5.62 mol/L
same,Log GI50 (concentration in mol/L causing 50% growth inhibition),CNS cancer cell lines,−5.62 mol/L
same,Log GI50 (concentration in mol/L causing 50% growth inhibition),[7],−4.63 mol/L
same,Log GI50 (concentration in mol/L causing 50% growth inhibition),[8],−5.65 mol/L
same,Log GI50 (concentration in mol/L causing 50% growth inhibition),Colon cancer cell lines,−5.85 mol/L
same,Log GI50 (concentration in mol/L causing 50% growth inhibition),Breast cancer cell lines,−6.57 mol/L
same,Log GI50 (concentration in mol/L causing 50% growth inhibition),[9],−5.56 mol/L
same,Log GI50 (concentration in mol/L causing 50% growth inhibition),Renal cancer cell lines,−5.67 mol/L
